Laboratory results published in US6054435A, “6-O-substituted macrolides having antibacterial activity” (priority 1999, dated 2000).
≈ marks a conversion by molar mass, not a printed value.

Tests used:
Test in all cases: in vitro antibacterial activity (MIC), agar dilution
Assay type in all cases: cell-based
[1] = tested on: Haemophilis Influenzae DILL AMP R; conditions: organism code WW; BHI agar, 35-37° C., 20 to 24 hours; unit assumed
In short: (§1)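 BHI agar incorporation method; twelve compound concentrations. Streptococcus and other slow growers inoculated at 1:10, other strains at 1:100. Visual MIC read-out versus growth control.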

[2] = tested on: Streptococcus pyogenes PIU 2548; conditions: organism code NN; BHI agar, 35-37° C., 20 to 24 hours; unit assumed
In short: as §1

[3] = tested on: Streptococcus pyogenes 930; conditions: organism code MM; BHI agar, 35-37° C., 20 to 24 hours; unit assumed
In short: as §1

[4] = tested on: Escherichia coli DC-2; conditions: organism code SS; BHI agar, 35-37° C., 20 to 24 hours; unit assumed
In short: as §1

[5] = tested on: Escherichia coli SS; conditions: organism code RR; BHI agar, 35-37° C., 20 to 24 hours; unit assumed
In short: as §1

[6] = tested on: Staphylococcus epidermidis 3519; conditions: organism code HH; BHI agar, 35-37° C., 20 to 24 hours; unit assumed
In short: as §1

[7] = tested on: Streptococcus Pneumonia 5979; conditions: organism code ZZ; BHI agar, 35-37° C., 20 to 24 hours; unit assumed
In short: as §1

[8] = tested on: Streptococcus Pneumonia ATCC6303; conditions: organism code XX; BHI agar, 35-37° C., 20 to 24 hours; unit assumed
In short: as §1

[9] = tested on: Staphylococcus aureus 1775; conditions: organism code GG; BHI agar, 35-37° C., 20 to 24 hours; unit assumed
In short: as §1

[10] = tested on: Micrococcus luteus ATCC 9341; conditions: organism code OO; BHI agar, 35-37° C., 20 to 24 hours; unit assumed
In short: (§2)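 Endpoint: lowest concentration with no growth, slight haze or sparsely isolated colonies at the inoculum spot, judged against a compound-free BHI control. Strains were replicator-inoculated at 1:100 (1:10 for Streptococcus and other slow growers).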

[11] = tested on: Candida albicans CCH 442; conditions: organism code TT; BHI agar, 35-37° C., 20 to 24 hours; unit assumed
In short: as §1

[12] = tested on: Staphylococcus aureus CMX 553; conditions: organism code FF; BHI agar, 35-37° C., 20 to 24 hours; unit assumed
In short: as §1

[13] = tested on: Nocardia Asteroides ATCC9970; conditions: organism code VV; BHI agar, 35-37° C., 20 to 24 hours; unit assumed
In short: as §1

[14] = tested on: Escherichia coli JUHL; conditions: organism code QQ; BHI agar, 35-37° C., 20 to 24 hours; unit assumed
In short: as §1

[15] = tested on: Streptococcus Pneumonia 5649; conditions: organism code ZZA; BHI agar, 35-37° C., 20 to 24 hours; unit assumed
In short: as §1

[16] = tested on: Micrococcus luteus ATCC 4698; conditions: organism code PP; BHI agar, 35-37° C., 20 to 24 hours; unit assumed
In short: as §2

[17] = tested on: Mycobacterium smegmatis ATCC 114; conditions: organism code UU; BHI agar, 35-37° C., 20 to 24 hours; unit assumed
In short: as §1

[18] = tested on: Streptococcus bovis A-5169; conditions: organism code JJ; BHI agar, 35-37° C., 20 to 24 hours; unit assumed
In short: as §1

[19] = tested on: Staphylococcus aureus A5177; conditions: organism code BB; BHI agar, 35-37° C., 20 to 24 hours; unit assumed
In short: as §1

[20] = tested on: Staphylococcus aureus A-5278; conditions: organism code CC; BHI agar, 35-37° C., 20 to 24 hours; unit assumed
In short: as §1

[21] = tested on: Streptococcus pyogenes EES61; conditions: organism code LL; BHI agar, 35-37° C., 20 to 24 hours; unit assumed
In short: as §1

[22] = tested on: Staphylococcus aureus CMX 642A; conditions: organism code DD; BHI agar, 35-37° C., 20 to 24 hours; unit assumed
In short: as §1

[23] = tested on: Enterococcus faecium ATCC 8043; conditions: organism code II; BHI agar, 35-37° C., 20 to 24 hours; unit assumed
In short: as §1

[24] = tested on: Streptococcus Pneumonia GYR 1171; conditions: organism code YY; BHI agar, 35-37° C., 20 to 24 hours; unit assumed
In short: as §1

[25] = tested on: Staphylococcus aureus NCTC10649M; conditions: organism code EE; BHI agar, 35-37° C., 20 to 24 hours; unit assumed
In short: as §1

[26] = tested on: Staphylococcus aureus ATCC 6538P; conditions: organism code AA; BHI agar, 35-37° C., 20 to 24 hours; unit assumed
In short: as §1

[27] = tested on: Streptococcus agalactiae CMX 508; conditions: organism code KK; BHI agar, 35-37° C., 20 to 24 hours; unit assumed
In short: as §1

Row | Compound | MIC [1] [µg/mL] | MIC [2] [µg/mL] | MIC [3] [µg/mL] | MIC [4] [µg/mL] | MIC [5] [µg/mL] | MIC [6] [µg/mL] | MIC [7] [µg/mL] | MIC [8] [µg/mL] | MIC [9] [µg/mL] | MIC [10] [µg/mL] | MIC [11] [µg/mL] | MIC [12] [µg/mL] | MIC [13] [µg/mL] | MIC [14] [µg/mL] | MIC [15] [µg/mL] | MIC [16] [µg/mL] | MIC [17] [µg/mL] | MIC [18] [µg/mL] | MIC [19] [µg/mL] | MIC [20] [µg/mL] | also measured
1 | CC[C@H]1OC(=O)[C@H](C)C(=O)[C@H](C)[C@@H](O[C@@H]2O[C@H](C)C[C@H](N(C)C)[C@H]2O)[C@](C)(OC/C=C/c2cncc(-n3ccnc3)c2)C[C@@H](C)C(=O)[C@H](C)[C@H]2NC(=O)O[C@@]21C [Example 37] | 4 (≈ 5.12 µM) | 0.39 (≈ 0.499 µM) | 25 (≈ 32 µM) | 50 (≈ 63.9 µM) | 0.39 (≈ 0.499 µM) | 0.1 (≈ 0.128 µM) | > 128 | ≤ 0.004 | > 100 | 0.01 (≈ 0.0128 µM) | > 100 | 0.1 (≈ 0.128 µM) | 0.1 (≈ 0.128 µM) | 50 (≈ 63.9 µM) | 2 (≈ 2.56 µM) | 0.2 (≈ 0.256 µM) | 3.1 (≈ 3.96 µM) | 0.01 (≈ 0.0128 µM) | 0.1 (≈ 0.128 µM) | > 100 | MIC [21]: 0.02 µg/mL (≈ 0.0256 µM); MIC [22]: 0.1 µg/mL (≈ 0.128 µM); MIC [23]: 0.05 µg/mL (≈ 0.0639 µM); MIC [24]: ≤ 0.004 µg/mL; MIC [25]: 0.2 µg/mL (≈ 0.256 µM); MIC [26]: 0.1 µg/mL (≈ 0.128 µM); MIC [27]: 0.02 µg/mL (≈ 0.0256 µM)
2 | CC[C@H]1OC(=O)[C@H](C)C(=O)[C@H](C)[C@@H](O[C@@H]2O[C@H](C)C[C@H](N(C)C)[C@H]2O)[C@](C)(OC/C=C/c2ccc(-c3nccs3)s2)C[C@@H](C)C(=O)[C@H](C)[C@H]2NC(=O)O[C@@]21C [Example 63] | 4 (≈ 4.97 µM) | 0.2 (≈ 0.249 µM) | 6.2 (≈ 7.71 µM) | 100 (≈ 124 µM) | 0.1 (≈ 0.124 µM) | 0.2 (≈ 0.249 µM) | 8 (≈ 9.95 µM) | 0.008 (≈ 0.00995 µM) | > 100 | 0.05 (≈ 0.0622 µM) | > 100 | 0.1 (≈ 0.124 µM) | 0.05 (≈ 0.0622 µM) | 100 (≈ 124 µM) | 0.25 (≈ 0.311 µM) | 0.1 (≈ 0.124 µM) | 0.39 (≈ 0.485 µM) | 0.05 (≈ 0.0622 µM) | 0.1 (≈ 0.124 µM) | > 100 | MIC [21]: 0.05 µg/mL (≈ 0.0622 µM); MIC [22]: 0.1 µg/mL (≈ 0.124 µM); MIC [23]: 0.05 µg/mL (≈ 0.0622 µM); MIC [24]: 0.008 µg/mL (≈ 0.00995 µM); MIC [25]: 0.1 µg/mL (≈ 0.124 µM); MIC [26]: 0.1 µg/mL (≈ 0.124 µM); MIC [27]: 0.05 µg/mL (≈ 0.0622 µM)
3 | CC[C@H]1OC(=O)[C@H](C)C(=O)[C@H](C)[C@@H](O[C@@H]2O[C@H](C)C[C@H](N(C)C)[C@H]2O)[C@](C)(OCC#Cc2ccc(-c3ccc(C=O)o3)cc2)C[C@@H](C)C(=O)[C@H](C)[C@H]2NC(=O)O[C@@]21C [Example 24] | 8 (≈ 9.91 µM) | 0.78 (≈ 0.967 µM) | 25 (≈ 31 µM) | > 100 | 1.56 (≈ 1.93 µM) | 0.39 (≈ 0.483 µM) | 2 (≈ 2.48 µM) | 0.03 (≈ 0.0372 µM) | > 100 | 0.02 (≈ 0.0248 µM) | > 100 | 0.39 (≈ 0.483 µM) | 0.1 (≈ 0.124 µM) | > 100 | 0.25 (≈ 0.31 µM) | 0.39 (≈ 0.483 µM) | 3.1 (≈ 3.84 µM) | 0.1 (≈ 0.124 µM) | 0.39 (≈ 0.483 µM) | > 100 | MIC [21]: 0.1 µg/mL (≈ 0.124 µM); MIC [22]: 0.39 µg/mL (≈ 0.483 µM); MIC [23]: 0.2 µg/mL (≈ 0.248 µM); MIC [24]: 0.03 µg/mL (≈ 0.0372 µM); MIC [25]: 0.39 µg/mL (≈ 0.483 µM); MIC [26]: 0.39 µg/mL (≈ 0.483 µM); MIC [27]: 0.1 µg/mL (≈ 0.124 µM)
4 | CCOC(=O)c1cncc(-c2ccc(C#CCO[C@]3(C)C[C@@H](C)C(=O)[C@H](C)[C@H]4NC(=O)O[C@]4(C)[C@@H](CC)OC(=O)[C@H](C)C(=O)[C@H](C)[C@H]3O[C@@H]3O[C@H](C)C[C@H](N(C)C)[C@H]3O)s2)c1 [Example 10] | 8 (≈ 9.22 µM) | 0.2 (≈ 0.23 µM) | 50 (≈ 57.6 µM) | > 100 | 0.78 (≈ 0.899 µM) | 0.2 (≈ 0.23 µM) | 4 (≈ 4.61 µM) | 0.03 (≈ 0.0346 µM) | > 100 | 0.01 (≈ 0.0115 µM) | > 100 | 0.05 (≈ 0.0576 µM) | 0.1 (≈ 0.115 µM) | > 100 | 0.5 (≈ 0.576 µM) | 0.2 (≈ 0.23 µM) | 1.56 (≈ 1.8 µM) | 0.005 (≈ 0.00576 µM) | 0.1 (≈ 0.115 µM) | > 100 | MIC [21]: 0.01 µg/mL (≈ 0.0115 µM); MIC [22]: 0.1 µg/mL (≈ 0.115 µM); MIC [23]: 0.1 µg/mL (≈ 0.115 µM); MIC [24]: 0.03 µg/mL (≈ 0.0346 µM); MIC [25]: 0.2 µg/mL (≈ 0.23 µM); MIC [26]: 0.1 µg/mL (≈ 0.115 µM); MIC [27]: 0.01 µg/mL (≈ 0.0115 µM)
